Data on one compound can be found in ChEMBL document CHEMBL5214900, “Design, Synthesis, and Biological Evaluation of Membrane-Active Bakuchiol Derivatives as Effective Broad-Spectrum Antibacterial Agents” (J Med Chem, 2021).

In brackets after ≈: the same amount, converted by molar mass.

The subject of data set [1] is Staphylococcus aureus. As to the kind of experiment: Antibiofilm activity against Staphylococcus aureus ATCC 29213 assessed reduction in biofilm formation at 6.25 ug/ml measured after 24 hrs by crystal violet staining based assay relative to control. Format: functional. Set-up: scale not given: the % may be the effect or the level left. The conditions noted are these: dose 6.25 µg/ml.

A short description of data set [2]: Cytotoxicity against mouse NCTC clone 929 cells assessed as cell viability incubated for 24 hrs by CCK-8 assay. Format: toxicity, cell-based.
Data set [3] relates to Acinetobacter baumannii. The experiment in a line: Antibacterial activity against Acinetobacter baumannii ATCC 17978 assessed as fold increase in MIC incubated for 24 hrs in presence of 4.5 mM K+ by CLSI based broth dilution method. Format: functional.
Data set [4] concerns Staphylococcus aureus. As to the kind of experiment: Antibacterial activity against Staphylococcus aureus ATCC 29213 assessed as fold increase in MIC incubated for 24 hrs in presence of 2.5 mM Ca2+ by CLSI based broth dilution method. Format: functional.
Data set [5] has as its system Staphylococcus aureus. As to the kind of experiment: Antibacterial activity against Staphylococcus aureus ATCC 29213 assessed as eradication of preformed bacterial biofilm by measuring residual biofilm viability at 3.125 ug/ml incubated for 24 hrs by crystal violet staining based assay relative to control. It is filed as functional. The conditions noted are these: dose 3.125 µg/ml.

Data set [6] deals with Lipoteichoic acid. As to the kind of experiment: Displacement of BODIPY-TR-cadaverine from Bacillus subtilis Lipoteichoic acid at 8 times MIC measured for 30 mins by fluorescence based microplate reader assay relative to control.
Data set [7] deals with Staphylococcus aureus. As to the kind of experiment: Antibacterial activity against methicillin-resistant Staphylococcus aureus N315 assessed as inhibition of bacterial growth incubated for 24 hrs by CLSI based broth dilution method. It is filed as functional.
Data set [8] deals with Escherichia coli. As to the kind of experiment: Antibiofilm activity against Escherichia coli ATCC 25922 assessed reduction in biofilm formation at 0.78 ug/ml measured after 24 hrs by crystal violet staining based assay relative to control. More on the design: scale not given: the % may be the effect or the level left. It is filed as functional. The conditions noted are these: dose 0.78 µg/ml.

The subject of data set [9] is Escherichia coli. The experiment in a line: Induction of drug resistance in Escherichia coli ATCC 25922 assessed as fold change in MIC measured after 19 passages by CLSI based broth dilution method. Format: functional.
Data set [10] has as its system Escherichia coli. As to the kind of experiment: Antibacterial activity against Escherichia coli ATCC 25922 assessed as eradication of preformed bacterial biofilm by measuring residual biofilm viability at 0.78 ug/ml incubated for 24 hrs by crystal violet staining based assay relative to control. The conditions noted are these: dose 0.78 µg/ml. It is filed as functional.

Data set [11] relates to Staphylococcus aureus. As to the kind of experiment: Antibacterial activity against Staphylococcus aureus NCTC10442 assessed as fold increase in MIC incubated for 24 hrs in presence of 2.5 mM Ca2+ by CLSI based broth dilution method. Format: functional.
Data set [12] has as its system Staphylococcus aureus. The experiment in a line: Antibacterial activity against Staphylococcus aureus ATCC 29213 assessed as fold increase in MIC incubated for 24 hrs in presence of 4.5 mM K+ by CLSI based broth dilution method. It is filed as functional.
Data set [13] can be described thus: Cytotoxicity against mouse NCTC clone 929 cells assessed as cell viability at 25 ug/ml incubated for 24 hrs by CCK-8 assay relative to control. The conditions noted are these: at 25 µg/mL, read-out: Activity. Format: toxicity, cell-based.
In data set [14] the test system is Lipopolysaccharide (LPS). The experiment in a line: Displacement of BODIPY-TR-cadaverine from Escherichia coli Lipopolysaccharide at 4 times MIC measured for 30 mins by fluorescence based microplate reader assay relative to control.
Data set [15] relates to Escherichia coli. The experiment in a line: Antibacterial activity against Escherichia coli ATCC 25922 assessed as eradication of preformed bacterial biofilm by measuring residual biofilm viability at 6.25 ug/ml incubated for 24 hrs by crystal violet staining based assay relative to control. It is filed as functional. The conditions noted are these: dose 6.25 µg/ml.
The subject of data set [16] is Escherichia coli. As to the kind of experiment: Antibiofilm activity against Escherichia coli ATCC 25922 assessed reduction in biofilm formation at 3.125 ug/ml measured after 24 hrs by crystal violet staining based assay relative to control. It is filed as functional. Set-up: scale not given: the % may be the effect or the level left. The conditions noted are these: dose 3.125 µg/ml.

Data set [17] relates to Staphylococcus aureus. As to the kind of experiment: Antibiofilm activity against Staphylococcus aureus ATCC 29213 assessed reduction in biofilm formation at 0.78 ug/ml measured after 24 hrs by crystal violet staining based assay relative to control. More on the design: scale not given: the % may be the effect or the level left. It is filed as functional. The conditions noted are these: dose 0.78 µg/ml.

In data set [18] the test system is Escherichia coli. The experiment in a line: Bactericidal activity against Escherichia coli ATCC 25922 assessed as log reduction in viable bacteria at 4 times MIC measured after 2 hrs by time-killing assay. Format: functional.
Data set [19] concerns Staphylococcus aureus. The experiment in a line: Induction of cell death in Staphylococcus aureus ATCC 29213 assessed as residual living cells at 8 times MIC incubated for 2 hrs by SYTO 9/PI staining based fluorescence analysis relative to control. Format: functional.

Take `C=C[C@@](C)(/C=C/c1ccc(OCCCCN(CCCN(C)C)CCCN(C)C)cc1)CCC=C(C)C`: the Activity in data set [1] was found to be 98.78%; in [5], 52.49%; in data set [6], 57.9%; in data set [8], 8.71%; in [10], 91.55%; in [14] it was 64.4%. Further, the Activity stood at 22.69% in data set [15], 92.62% in data set [16], 12.91% in [17] and 2.2% in [19]. For the same compound, the CC50 at 24 h in data set [2] was 36.8 µg/mL (≈ 73.9 µM). Besides, the “fold change (FC)” value was below 2 in [3]; below 2 in data set [4]; below 4 in [9]; below 2 in data set [11]; below 2 in [12]. In data set [7], the MIC turned out to be 1.56 µg/mL (≈ 3.13 µM). The viability at 24 h, 25 ug/ml in [13] came out at 74.1%. The “log(activity)” value in data set [18] is on record as 4.28.
